Laboratory results from US20230312481A1, “SUBSTITUTED (PHTHALAZIN-1-YLMETHYL)UREAS, SUBSTITUTED N-(PHTHALAZIN-1-YLMETHYL)AMIDES, AND ANALOGUES THEREOF” (priority 2020, published 2023).
Read-outs that look alike come from different tables or passages of the source.

System: HBV rcDNA in HepDE19 cells
Test: HepDE19 assay with bDNA quantitation of HBV rcDNA
Type: cell-based, hepatitis B virus
Details: read-out: DE-19bDNA EC50
Description: HepDE19 Assay With bDNA Quantitation of HBV rcDNA
HepDE19 (50,000 cells/well) were plated in 96-well collagen-coated tissue-culture treated microtiter plates in DMEM/F12 medium supplemented with 10% fetal bovine serum, 1% penicillin-streptomycin and 1 µg/mL tetracycline and incubated in a humidified incubator at 37° C. and 5% CO2 overnight. Next day, the cells were switched to fresh medium without tetracycline and incubated for 4 hours at 37° C. and 5% CO2. […] The final DMSO concentration in the assay was 0.5%. The plates were incubated for 7 days in a humidified incubator at 37° C. and 5% CO2. Following a 7 day-incubation, the level of rcDNA present in the inhibitor-treated wells was measured using a Quantigene 2.0 bDNA assay kit (Affymetrix, Santa Clara, CA) with HBV specific custom probe set and manufacturers instructions. Concurrently, the effect of compounds on cell viability was assessed using replicate plates, plated at a density of 5,000 cells/well and incubated for 4 days, to determine the ATP content as a measure of cell viability using the cell-titer glo reagent (CTG; Promega Corporation, Madison, WI) as per manufacturer’s instructions.
Representative compounds of the disclosure were tested for their abilities to inhibit formation of relaxed circular DNA (rcDNA) in a HepDE19 assay, as described elsewhere herein.

[1] = Hepatitis B virus, HepDE19, 168 h, HepDE19 cells, 7 day incubation, rcDNA measured by Quantigene 2.0 bDNA assay, top concentration 25 µM
[2] = HepDE19 cells, 7 day incubation, rcDNA measured by Quantigene 2.0 bDNA assay, top concentration 25 µM
[3] = Hepatitis B virus, HepDE19, 168 h

Row | SMILES | EC50 [1] | EC50 [2] | further results
1 | CC(c1n[nH]c(=O)c2ccccc12)N(C)C(=O)Nc1ccc(F)c(Cl)c1 (racemic) [Compound 1, 3-(3-chloro-4-fluoro-phenyl)-1-methyl-1-[1-(4-oxo-3H-phthalazin-1-yl)ethyl]urea] | 0.24 µM | – | –
2 | CC(C)CN(C(=O)Nc1ccc(F)cc1)C(C)c1n[nH]c(=O)c2cc(F)ccc12 (single isomer, unassigned) [Compound 21, 1-(1-(6-fluoro-4-oxo-3,4-dihydrophthalazin-1-yl)ethyl)-3-(4-fluorophenyl)-1-isobutylurea] | – | 2.4 µM | –
3 | CC(C)CN(C(=O)NC1CCCC1)C(C)c1nn(C)c(=O)c2cc(F)c(F)cc12 (racemic) [Compound 35, 3-cyclopentyl-1-(1-(6,7-difluoro-3-methyl-4-oxo-3,4-dihydrophthalazin-1-yl)ethyl)-1-isobutylurea] | – | – | EC50 [3]: 6.9 µM
4 | CC(c1n[nH]c(=O)c2cc(F)c(F)cc12)N(C)C(=O)c1ccc(Br)c(F)c1 (racemic) [Compound 63, 4-bromo-N-(1-(6,7-difluoro-4-oxo-3,4-dihydrophthalazin-1-yl)ethyl)-3-fluoro-N-methylbenzamide] | 0.06 µM | – | –
5 | CC(C)CN(C(=O)NC1CC1)C(C)c1nn(C)c(=O)c2cc(F)c(F)cc12 (racemic) [Compound 33, 3-cyclopropyl-1-(1-(6,7-difluoro-3-methyl-4-oxo-3,4-dihydrophthalazin-1-yl)ethyl)-1-isobutylurea] | 6.3 µM | – | –
6 | C[C@@H](c1n[nH]c(=O)c2cc(F)c(F)cc12)N(C)C(=O)Nc1ccc(F)c(Cl)c1 [Compound 31, 3-(3-chloro-4-fluorophenyl)-1-(1-(6,7-difluoro-4-oxo-3,4-dihydrophthalazin-1-yl)ethyl)-1-methylurea] | 1.8 µM | – | –
7 | CC(c1n[nH]c(=O)c2cc(Cl)ccc12)N(CCCO)C(=O)Nc1ccc(F)c(Cl)c1 (racemic) [Compound 13, 3-(3-chloro-4-fluorophenyl)-1-(1-(6-chloro-4-oxo-3,4-dihydrophthalazin-1-yl)ethyl)-1-(3-hydroxypropyl)urea] | 0.022 µM | – | –
8 | CC(c1n[nH]c(=O)c2cc(F)c(F)cc12)N(C)C(=O)c1ccc(C(F)(F)F)c(F)c1 (racemic) [Compound 62, N-(1-(6,7-difluoro-4-oxo-3,4-dihydrophthalazin-1-yl)ethyl)-3-fluoro-N-methyl-4-(trifluoromethyl)benzamide] | 0.1 µM | – | –
9 | CC(c1n[nH]c(=O)c2cc(F)c(F)cc12)N(C)C(=O)c1cc2ccccn2c1 (racemic) [Compound 59, N-(1-(6,7-difluoro-4-oxo-3,4-dihydrophthalazin-1-yl)ethyl)-N-methylindolizine-2-carboxamide] | – | – | EC50 [3]: 0.13 µM
10 | CCN(C(=O)c1cc2ccccc2[nH]1)C(C)c1n[nH]c(=O)c2cc(F)c(F)cc12 (racemic) [Compound 48, N-(1-(6,7-difluoro-4-oxo-3,4-dihydrophthalazin-1-yl)ethyl)-N-ethyl-1H-indole-2-carboxamide] | 0.06 µM | – | –
11 | CC(c1n[nH]c(=O)c2cc(Cl)ccc12)N(CCCO)C(=O)Nc1ccc(F)cc1 (racemic) [Compound 14, 1-(1-(6-chloro-4-oxo-3,4-dihydrophthalazin-1-yl)ethyl)-3-(4-fluorophenyl)-1-(3-hydroxypropyl)urea] | 0.11 µM | – | –
12 | CC(c1n[nH]c(=O)c2cc(F)ccc12)N(C)C(=O)Nc1ccc(F)c(Cl)c1 (racemic) [Compound 17, 3-(3-chloro-4-fluorophenyl)-1-(1-(6-fluoro-4-oxo-3,4-dihydrophthalazin-1-yl)ethyl)-1-methylurea] | 0.081 µM | – | –
13 | CC(c1nn(C)c(=O)c2cc(F)c(F)cc12)N(CCCO)C(=O)Nc1ccc(F)c(Cl)c1 (racemic) [Compound 25, 3-(3-chloro-4-fluorophenyl)-1-(1-(6,7-difluoro-3-methyl-4-oxo-3,4-dihydrophthalazin-1-yl)ethyl)-1-(3-hydroxypropyl)urea] | 0.01 µM | – | –
14 | Cc1c(C(=O)N(C)C(C)c2n[nH]c(=O)c3cc(F)c(F)cc23)[nH]c2ccccc12 (racemic) [Compound 55, N-(1-(6,7-difluoro-4-oxo-3,4-dihydrophthalazin-1-yl)ethyl)-N,3-dimethyl-1H-indole-2-carboxamide] | 0.44 µM | – | –
15 | CC(c1n[nH]c(=O)c2cc(F)c(F)cc12)N(C)C(=O)c1ccc2ccn(C)c2c1 (single isomer, unassigned) [Compound 104, N-(1-(6,7-difluoro-4-oxo-3,4-dihydrophthalazin-1-yl)ethyl)-N,1-dimethyl-1H-indole-6-carboxamide] | – | > 25 µM | –
16 | CC(c1n[nH]c(=O)c2cc(F)c(F)cc12)N(C)C(=O)[C@@H]1Cc2ccccc2N1 (stereo partly drawn) [Compound 78, (2S)-N-(1-(6,7-difluoro-4-oxo-3,4-dihydrophthalazin-1-yl)ethyl)-N-methylindoline-2-carboxamide] | 3.64 µM | – | –
17 | CC(C)CN(C(=O)Nc1ccccc1)C(C)c1nn(C)c(=O)c2cc(F)c(F)cc12 (racemic) [Compound 34, 1-(1-(6,7-difluoro-3-methyl-4-oxo-3,4-dihydrophthalazin-1-yl)ethyl)-1-isobutyl-3-phenylurea] | – | – | EC50 [3]: 0.01 µM
18 | CC(c1n[nH]c(=O)c2cc(F)c(F)cc12)N(C)C(=O)c1cc2c(C(F)F)cc(F)cc2[nH]1 (single isomer, unassigned) [Compound 97, N-(1-(6,7-difluoro-4-oxo-3,4-dihydrophthalazin-1-yl)ethyl)-4-(difluoromethyl)-6-fluoro-N-methyl-1H-indole-2-carboxamide] | – | 0.02 µM | –
19 | CC(c1n[nH]c(=O)c2cc(F)c(F)cc12)N(C)C(=O)c1cnc(C(F)(F)F)c(Cl)c1 (single isomer, unassigned) [Compound 93, 5-chloro-N-(1-(6,7-difluoro-4-oxo-3,4-dihydrophthalazin-1-yl)ethyl)-N-methyl-6-(trifluoromethyl)nicotinamide] | – | 1.66 µM | –
20 | CC(c1n[nH]c(=O)c2cc(F)c(F)cc12)N(C)C(=O)c1ccc2[nH]ncc2c1 (single isomer, unassigned) [Compound 111, N-(1-(6,7-difluoro-4-oxo-3,4-dihydrophthalazin-1-yl)ethyl)-N-methyl-1H-indazole-5-carboxamide] | – | 8.88 µM | –
21 | CC(c1n[nH]c(=O)c2cc(F)c(F)cc12)N(C)C(=O)c1cc2c(F)cccn2c1 (racemic) [Compound 77, N-(1-(6,7-difluoro-4-oxo-3,4-dihydrophthalazin-1-yl)ethyl)-8-fluoro-N-methylindolizine-2-carboxamide] | 8.38 µM | – | –
22 | CC(c1n[nH]c(=O)c2cc(F)c(F)cc12)N(C)C(=O)c1cc2c(C(F)F)cccn2c1 (single isomer, unassigned) [Compound 99, N-(1-(6,7-difluoro-4-oxo-3,4-dihydrophthalazin-1-yl)ethyl)-8-(difluoromethyl)-N-methylindolizine-2-carboxamide] | – | 0.01 µM | –
23 | CC(c1n[nH]c(=O)c2cc(F)c(F)cc12)N(C)C(=O)c1ccc(Cl)cc1 (racemic) [Compound 69, 4-chloro-N-(1-(6,7-difluoro-4-oxo-3,4-dihydrophthalazin-1-yl)ethyl)-N-methylbenzamide] | – | – | EC50 [3]: 0.2 µM
24 | CC(c1n[nH]c(=O)c2ccccc12)N(C)C(=O)Nc1ccc(F)c(Cl)c1 (single isomer, unassigned) [Compound 4, 3-(3-chloro-4-fluoro-phenyl)-1-methyl-1-[1-(4-oxo-3H-phthalazin-1-yl)ethyl]urea] | – | 0.2 µM | –
25 | CC(c1n[nH]c(=O)c2cc(F)c(F)cc12)N(C)C(=O)c1ccc2cn[nH]c2c1 (single isomer, unassigned) [Compound 113, N-(1-(6,7-difluoro-4-oxo-3,4-dihydrophthalazin-1-yl)ethyl)-N-methyl-1H-indazole-6-carboxamide] | – | 2.49 µM | –
26 | C[C@H](c1n[nH]c(=O)c2cc(F)c(F)cc12)N(C)C(=O)c1cc2ccccc2[nH]1 [Compound 46, (R)-N-(1-(6,7-difluoro-4-oxo-3,4-dihydrophthalazin-1-yl)ethyl)-N-methyl-1H-indole-2-carboxamide] | – | – | EC50 [3]: 0.032 µM
27 | CC(c1n[nH]c(=O)c2cc(F)c(F)cc12)N(C)C(=O)c1ccc2ncsc2c1 (single isomer, unassigned) [Compound 87, N-(1-(6,7-difluoro-4-oxo-3,4-dihydrophthalazin-l-yl)ethyl)-N-methylbenzo[d]thiazole-6-carboxamide] | – | 5.57 µM | –
28 | CC(C)CN(C(=O)Nc1ccc(F)cc1)C(C)c1nn(C)c(=O)c2ccccc12 (racemic) [Compound 9, 3-(4-fluorophenyl)-1-isobutyl-1-(1-(3-methyl-4-oxo-3,4-dihydrophthalazin-1-yl)ethyl)urea] | 0.03 µM | – | –
29 | CC(C)CN(C(=O)Nc1ccc(F)cc1)C(C)c1n[nH]c(=O)c2ccccc12 (racemic) [Compound 19, 3-(4-fluorophenyl)-1-isobutyl-1-(1-(4-oxo-3,4-dihydrophthalazin-1-yl)ethyl)urea] | 0.048 µM | – | –
30 | CC(c1n[nH]c(=O)c2cc(F)c(F)cc12)N(C)C(=O)c1cc2c(F)c(F)ccc2[nH]1 (racemic) [Compound 54, N-(1-(6,7-difluoro-4-oxo-3,4-dihydrophthalazin-1-yl)ethyl)-4,5-difluoro-N-methyl-1H-indole-2-carboxamide] | 0.024 µM | – | –
